From patent US20260200926A1, “TREM2 MODULATORS” (Muna Therapeutics ApS, priority 2022, published 2026)
Like-named read-outs stand apart in the source and are kept apart here.

Target: T1, Human TREM2 (Homo sapiens, UniProt Q9NZC2)
T1 construct: expressed in transfected cells
Experiment: Human TREM2 activity: cellular phosphorylation of Syk (AlphaLISA SureFire Ultra p-SYK) in HEK293/DAP12+TREM2 stable cell line
Type: cell-based
Settings: for Emax: maximal response relative to reference agonist example 1B (remaining examples)
Outline: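 HEK293 cells stably co-expressing human TREM2 and DAP12 were seeded at 10,000 cells/well and used 20–24 h later. Compounds were tested at 8 concentrations (top 100 μM, 1:6 steps, 0.5% DMSO) for 30 min at 37 °C. Syk phosphorylation at Tyr525/526 was read in lysates by AlphaLISA SureFire Ultra.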

[1] = phospho-Syk AlphaLISA signal, HEK293/DAP12+TREM2 cells, concentration giving 50% of maximal response, read-out: EC50

T1 sequence (Q9NZC2 19-230): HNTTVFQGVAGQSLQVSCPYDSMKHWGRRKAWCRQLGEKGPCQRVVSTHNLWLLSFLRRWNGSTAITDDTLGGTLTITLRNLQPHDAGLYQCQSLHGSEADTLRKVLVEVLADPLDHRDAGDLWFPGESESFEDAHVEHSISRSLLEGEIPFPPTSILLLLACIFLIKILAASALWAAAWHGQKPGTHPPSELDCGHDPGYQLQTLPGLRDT
T1 sequence (O43914 22-113 partner): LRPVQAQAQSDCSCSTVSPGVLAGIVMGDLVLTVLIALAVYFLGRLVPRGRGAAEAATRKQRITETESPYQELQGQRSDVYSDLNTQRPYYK

Structure (SMILES)	Emax (HEK293, read-out: Emax) [%]	EC50 [1] [nM]	Emax	EC50 [nM]
Cn1c(C(F)(F)F)nc2c(-c3ccc(F)cc3F)nc([C@H]3CCO[C@@H](c4cnn(C5CC5)c4)C3)cc2c1=O (single isomer, unassigned) [Example 197B]	< 75	1 to 10	–	–
Cc1nc2c(-c3ccc(Cl)cc3F)nc(N3C[C@H](c4cnn(C5CC5)c4)OC(C)(C)C3)nc2c(=O)n1C (single isomer, unassigned) [Example 110B]	< 75	10 to 100	–	–
Cc1nc2c(-c3ccc(C(F)(F)F)cc3F)nc([C@@H]3CCO[C@H](c4cnn(C)c4)C3)nc2c(=O)n1C (single isomer, unassigned) [Example 65]	75 to 110	10 to 100	–	–
Cc1nc2c(-c3cc(F)c(F)cc3F)nc([C@H]3CCO[C@@H](c4cnn(C5CC5)c4)C3)cc2c(=O)n1C (single isomer, unassigned) [Example 139B]	< 75	100 to 1000	–	–
Cc1nc2c(-c3ccc(C(F)(F)F)nc3)nc(N3CCO[C@H](c4cnn(C)c4)C3)nc2c(=O)n1C (single isomer, unassigned) [Example 28A]	75 to 110	> 1000	–	–
Cc1nc2c(-c3ccc(Cl)cc3F)nc(N3CCC(c4cnn(C)c4)C3)nc2c(=O)n1C (stereo not shown) [Example 63, 8-(4-chloro-2-fluorophenyl)-2,3-dimethyl-6-[3-(1-methyl-1H-pyrazol-4-yl)pyrrolidin-1-yl]-3H,4H-pyrimido[5,4-d][1,3]diazin-4-one]	< 75	10 to 100	–	–
Cc1nc2c(-c3cc(F)c(F)cc3F)nc(N3CCOC(c4cnn(C)c4)C3)nc2c(=O)n1C (stereo not shown) [Example 7, 2,3-dimethyl-6-(2-(1-methyl-1H-pyrazol-4-yl)morpholino)-8-(2,4,5-trifluorophenyl)pyrimido[5,4-d]pyrimidin-4(3H)-one]	< 75	100 to 1000	–	–
Cc1nc2c(-c3ccc(Cl)cc3F)cc([C@@H]3CCO[C@H](c4cnn(C5CC5)c4)C3)cc2c(=O)n1C (single isomer, unassigned) [Example 119A]	< 75	100 to 1000	–	–
Cc1nc2c(-c3ccc(Cl)cc3F)nc(N3C[C@H](c4cnn(C)c4)OC4(CC4)C3)nc2c(=O)n1C (single isomer, unassigned) [Example 108B]	< 75	100 to 1000	–	–
Cc1nc2c(-c3ccc(Cl)cc3F)nc(N3CCOC(c4cc[nH]n4)C3)nc2c(=O)n1C (stereo not shown) [Example 47, 6-(2-(1H-pyrazol-3-yl)morpholino)-8-(4-chloro-2-fluorophenyl)-2,3-dimethylpyrimido[5,4-d]pyrimidin-4(3H)-one]	< 75	100 to 1000	–	–
Cc1nc2c(-c3ccc(C(F)(F)F)cc3F)nc(N3C[C@H](c4cnn(C)c4)OC(C)(C)C3)cc2c(=O)n1C (single isomer, unassigned) [Example 134B]	< 75	100 to 1000	–	–
Cc1nc2c(-c3ccc(Cl)cc3F)nc(N3C[C@H](c4cnn(C)n4)OC(C)(C)C3)cc2c(=O)n1C (single isomer, unassigned) [Example 147B]	75 to 110	100 to 1000	–	–
CCN1CCN(c2nc(-c3ccc(Cl)cc3F)c3nc(C)n(C)c(=O)c3n2)CC1c1cnn(C)c1 (stereo not shown) [Example 30, 8-(4-chloro-2-fluorophenyl)-6-(4-ethyl-3-(1-methyl-1H-pyrazol-4-yl)piperazin-1-yl)-2,3-dimethylpyrimido[5,4-d]pyrimidin-4(3H)-one]	75 to 110	100 to 1000	–	–
Cc1nc2c(-c3cc(F)c(F)cc3F)nc(N3CCO[C@H](c4cnn(C)c4)C3)nc2c(=O)n1C (single isomer, unassigned) [Example 27A]	< 75	10 to 100	–	–
Cc1nc2c(-c3ccc(C(F)(F)F)cc3F)nc(N3C[C@@H](c4cnn(C)c4)OC4(CC4)C3)cc2c(=O)n1C (single isomer, unassigned) [Example 145A]	75 to 110	1 to 10	–	–
Cc1nc2c(-c3ccc(C(F)(F)F)nc3)nc(N3CCOC(c4cnn(C)c4)C3)nc2c(=O)n1C (stereo not shown) [Example 4, 2,3-dimethyl-6-(2-(1-methyl-1H-pyrazol-4-yl)morpholino)-8-(6-(trifluoromethyl)pyridin-3-yl)pyrimido[5,4-d]pyrimidin-4(3H)-one]	75 to 110	100 to 1000	–	–
Cc1cc([C@H]2CN(c3cc4c(=O)n(C)c(C)nc4c(-c4cc(F)c(F)cc4F)n3)CC(C)(C)O2)ccn1 (single isomer, unassigned) [Example 160B]	< 75	100 to 1000	–	–
Cc1cc([C@@H]2CN(c3nc(-c4ccc(F)cc4F)c4nc(C)n(C)c(=O)c4n3)C[C@H](C)O2)ccn1 (single isomer, unassigned) [Example 175A]	75 to 110	1 to 10	–	–
Cc1nc2c(-c3ccc(C(F)(F)F)cc3F)nc(N3CCO[C@@H](c4cnn(C5CC5)c4)C3)cc2c(=O)n1C (single isomer, unassigned) [Example 132B]	< 75	100 to 1000	–	–

Structure (SMILES)	Emax (HEK293, read-out: Emax) [%]	EC50 [1] [nM]	Emax	EC50 [nM]
Cc1n[nH]c(C2CN(c3nc(-c4ccc(Cl)cc4F)c4nc(C)n(C)c(=O)c4n3)CCO2)n1 (stereo not shown) [Example 46, 8-(4-chloro-2-fluorophenyl)-2,3-dimethyl-6-(2-(3-methyl-1H-1,2,4-triazol-5-yl)morpholino)pyrimido[5,4-d]pyrimidin-4(3H)-one]	< 75	100 to 1000	–	–
Cc1nc2c(-c3ccc(Cl)cc3F)nc(N3C[C@@H](c4cnn(C5CC5)c4)OC(C)(C)C3)nc2c(=O)n1C (single isomer, unassigned) [Example 110A]	75 to 110	1 to 10	–	–
Cc1nc2c(-c3ccc(Cl)cc3F)nc([C@@]34CCO[C@@H](c5cnn(C6CC6)c5)[C@@H]3C4)nc2c(=O)n1C (single isomer, unassigned) [Example 116B]	< 75	100 to 1000	–	–
Cc1nc2c(nc(N3CCO[C@@H](c4cnn(C)c4)C3)nc2[C@H]2CC[C@H](C)CC2)c(=O)n1C (single isomer, unassigned) [Example 71B]	–	10 to 100	+ (<75%)	–
Cc1nc2c(-c3ccc(Cl)cc3F)nc([C@@H]3CCO[C@H](c4cnn(C)c4)C3)nc2c(=O)n1C (single isomer, unassigned) [Example 67]	> 110	100 to 1000	–	–
Cc1cc([C@H]2CN(c3cc4c(=O)n(C)c(C)nc4c(-c4ccc(C(F)(F)F)nc4)n3)CC(C)(C)O2)ccn1 (single isomer, unassigned) [Example 161B]	75 to 110	1 to 10	–	–
Cc1nc2c(-c3ccc(F)cc3C#N)nc(N3C[C@@H](C)O[C@@H](c4cnn(C5CC5)c4)C3)cc2c(=O)n1C (single isomer, unassigned) [Example 201B]	< 75	> 1000	–	–
Cc1nc2c(-c3ccc(Cl)cc3F)nc(N3CCN(CC(F)F)C(c4cnn(C)c4)C3)nc2c(=O)n1C (stereo not shown) [Example 32, 8-(4-chloro-2-fluorophenyl)-6-(4-(2,2-difluoroethyl)-3-(1-methyl-1H-pyrazol-4-yl)piperazin-1-yl)-2,3-dimethylpyrimido[5,4-d]pyrimidin-4(3H)-one]	< 75	10 to 100	–	–
Cc1ncc(C2CN(c3nc(-c4ccc(Cl)cc4F)c4nc(C)n(C)c(=O)c4n3)CCO2)cn1 (stereo not shown) [Example 35, 8-(4-chloro-2-fluorophenyl)-2,3-dimethyl-6-(2-(2-methylpyrimidin-5-yl)morpholino)pyrimido[5,4-d]pyrimidin-4 (3H)-one]	–	–	+ (<75%)	10 to 100
Cc1cc([C@@H]2CN(c3cc4c(=O)n(C)c(C)nc4c(-c4ccc(C(F)(F)F)nc4)n3)CC(C)(C)O2)ccn1 (single isomer, unassigned) [Example 161A]	< 75	100 to 1000	–	–
Cc1cc([C@@H]2CN(c3cc4c(=O)n(C)c(C)nc4c(-c4ccc(C(F)(F)F)cc4F)n3)CC(C)(C)O2)ccn1 (single isomer, unassigned) [Example 163A]	< 75	100 to 1000	–	–
Cc1nc2c(-c3ccc(F)cc3F)nc(N3CCOC(c4cnn(C)c4)C3)nc2c(=O)n1C (stereo not shown) [Example 5, 8-(2,4-difluorophenyl)-2,3-dimethyl-6-(2-(1-methyl-1H-pyrazol-4-yl)morpholino)pyrimido[5,4-d]pyrimidin-4(3H)-one]	< 75	10 to 100	–	–
Cc1cc([C@H]2CN(c3cc4c(=O)n(C)c(C)nc4c(-c4ccc(C(F)(F)F)nc4)n3)C[C@@H](C)O2)ccn1 (single isomer, unassigned) [Example 199B]	75 to 110	< 1	–	–
Cc1nc2c(-c3ccc(Cl)cc3F)nc(N3CCC(F)(F)C(c4cnn(C)c4)C3)nc2c(=O)n1C (stereo not shown) [Example 13, 8-(4-chloro-2-fluorophenyl)-6-(4,4-difluoro-3-(1-methyl-1H-pyrazol-4-yl)piperidin-1-yl)-2,3-dimethylpyrimido[5,4-d]pyrimidin-4 (3H)-one]	75 to 110	1 to 10	–	–
Cc1nc2c(-c3ccc(Cl)cc3F)nc(N3CCO[C@H](c4cnn(C5CC5)c4)C3)cc2c(=O)n1C (single isomer, unassigned) [Example 131A]	75 to 110	1 to 10	–	–
Cc1nc2c(-c3ccc(Cl)cc3F)nc(N3CCOC(c4cnn(C5CC5)c4)C3)nc2c(=O)n1C (stereo not shown) [Example 2, 8-(4-chloro-2-fluorophenyl)-6-(2-(1-cyclopropyl-1H-pyrazol-4-yl)morpholino)-2,3-dimethylpyrimido[5,4-d]pyrimidin-4 (3H)-one]	75 to 110	1 to 10	–	–
Cc1nc2c(-c3cc(F)c(F)cc3F)nc(N3C[C@H](c4cnn(C)c4)OC(C)(C)C3)cc2c(=O)n1C (single isomer, unassigned) [Example 150B]	< 75	> 1000	–	–
Cc1nc2c(-c3ccc(C(F)F)nc3)nc(N3C[C@@H](C)O[C@@H](c4cnn(C5CC5)c4)C3)cc2c(=O)n1C (single isomer, unassigned) [Example 194B]	< 75	100 to 1000	–	–
Cc1cc([C@H]2CN(c3nc(-c4ccc(F)cc4F)c4nc(C)n(C)c(=O)c4n3)CCO2)ccn1 (single isomer, unassigned) [Example 122B]	< 75	100 to 1000	–	–
